Data from patent EP4417607A1, “HETEROCYCLIC COMPOUND AS SOS1 INHIBITOR AND USES THEREOF” (Nanjing Zaiming Pharmaceutical Co., Ltd., priority 2021, dated 2023).
Blank lines part the entries; values can stand above or below the molecule they belong to.

What was measured:
CYP2C9 = biological target: T1, CYP2C9 (Homo sapiens, UniProt P11712); experiment: CYP2C9 enzymatic activity inhibition in human liver microsomes; format: in vitro ADME; conditions: IC50, human liver microsome, substrate diclofenac
T1 construct: Human liver microsome (Corning 452117); tissue Corning 452117; host or cells: human liver microsomes
T1 sequence (P11712 whole entry): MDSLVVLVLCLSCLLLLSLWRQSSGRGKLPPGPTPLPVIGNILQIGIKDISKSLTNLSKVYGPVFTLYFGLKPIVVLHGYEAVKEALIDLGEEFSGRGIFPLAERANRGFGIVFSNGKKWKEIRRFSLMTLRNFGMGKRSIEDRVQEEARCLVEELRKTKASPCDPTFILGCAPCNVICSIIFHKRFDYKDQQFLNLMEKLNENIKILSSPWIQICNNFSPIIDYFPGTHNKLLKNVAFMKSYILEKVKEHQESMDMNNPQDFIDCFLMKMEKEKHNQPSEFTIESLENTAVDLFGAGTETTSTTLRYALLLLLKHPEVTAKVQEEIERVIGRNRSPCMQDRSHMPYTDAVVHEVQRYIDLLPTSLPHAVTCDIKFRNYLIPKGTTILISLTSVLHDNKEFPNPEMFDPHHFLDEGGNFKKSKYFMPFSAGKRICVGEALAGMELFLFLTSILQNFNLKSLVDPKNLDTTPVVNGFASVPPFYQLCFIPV
Description: The inhibition of CYP2C9, CYP2D6, and CYP3A4 enzymatic activity by the compound of the present invention was determined using the following method. • I. Experimental materials and instruments • 1. Human liver microsome (Corning 452117) • 2. Na2HPO4 (Sigma SLBZ6180) • 3. KH2PO4 (Sigma SLBT6559) • 4. NADPH (Solarbio 705Y021) • […] • 6. Positive substrates diclofenac (Sigma SLBV3438), dextromethorphan (TRC 3-EDO-175-1), and midazolam (Cerilliant FE01161704) • 7. Positive inhibitors sulfaphenazole (D. Ehrenstorfer GmbH 109012), quinidine (TCI WEODL-RE), and ketoconazole (Sigma 100M1091V) • 7. AB Sciex Triple Quad 5500 liquid chromatography-mass spectrometry system • II. Procedures • 1. Preparation of 100 mM phosphate-buffered saline (PBS): 7.098 g Na2HPO4 was weighed. 500 mL pure water was added. The mixture was dissolved by sonication to give solution A. 3.400 g KH2PO4 was weighed. 250 mL pure water was added. The mixture was dissolved by sonication to give solution B. The solution A was placed in a stirrer, and the solution B was slowly added until the pH reached 7.4 to prepare the 100 mM PBS buffer. • 2. A 10 mM NADPH solution was prepared with a 100 mM PBS buffer. A 10 mM stock solution of the compound of the present invention was diluted with DMSO to give a compound working solution at a concentration of 200× (6000, 2000, 600, 200, 60, 20, and 0 µM). The positive inhibitor stock solution was diluted with DMSO to give a positive inhibitor working solution at a concentration of 200× (sulfaphenazole, 1000, 300, 100, 30, 10, 3, and 0 µM; quinidine/ketoconazole, 100, 30, 10, 3, 1, 0.3, and 0 µM). Substrate working solutions (120 µM diclofenac, 400 µM dextromethorphan, and 200 µM midazolam) at a concentration of 200× were prepared with water, acetonitrile, or acetonitrile/methanol. • 3. […]
The values were calculated by Excel XLfit 5.3.1.3 to obtain IC50 values for the compounds of the present invention against CYP2C9, CYP2D6, and CYP3A4 as shown in Table 8. […]

[1] = tested on: DLD-1 cell subcutaneous tumor model; experiment: Growth inhibition in DLD-1 cell subcutaneous tumor model; format: in vivo, NU/NU mice; conditions: for TGI(%): 15 mg/kg, PO, BID, DLD-1 subcutaneous tumor, NU/NU mice
Excerpt: • Human colorectal cancer DLD-1 cell: ATCC, CCL-221 • RPMI-1640 culture medium: Gibco, REF: 61870-036 • Fetal bovine serum: Gibco, REF: 10091-148 • 0.25% trypsin-EDTA: Gibco, REF: 25200-072 • D-PBS (phosphate-buffered saline without calcium and magnesium ions): Hyclone, Cat. No.: SH30256.01 • Matrigel: Corning, Cat. No.: 356237
• Animal information: NU/NU mice, female, aged 6-7 weeks, 24-30 g, purchased from Beijing Vital River Biotechnology Co., Ltd. • Cell culture: human colon cancer cell strain DLD-1 was cultured in vitro under the conditions of RPMI-1640 (cell culture medium) added with 10% fetal bovine serum and 1% Pen Strep (Gibco penicillin-streptomycin diabody), and an incubator at 37 °C with 5% CO2. The cells were digested with a 0.25% trypsin-EDTA digestive solution twice a week for passaging as per conventional practice. When cell confluence was 80%-90% and a required amount was achieved, the cells were collected and counted. Cell inoculation: 0.1 mL/(containing 5×10^6) DLD-1 cell suspension (RPMI-1640: Matrigel, volume ratio 1: 1) was inoculated subcutaneously into the right lumbar dorsal part of each mouse. On day 6 after inoculation of the cells, the mice were randomly grouped and administrated based on tumor volume. The day when random grouping was performed was day 0.
Tumor diameters were measured twice weekly using a vernier caliper. The tumor volume was calculated using the following formula: V = 0.5a × b^2, where a and b represent the long diameter and short diameter of the tumor, respectively. Mouse body weight was measured twice weekly.
The anti-tumor therapeutic effect of the compound was evaluated by tumor growth inhibition rate TGI (%). TGI (%) = [(1 - (average tumor volume at the end of administration in a treatment group - average tumor volume at the start of administration of the treatment group)) / (average tumor volume at the end of treatment of the solvent control group - average tumor volume at the start of treatment of the solvent control group)] × 100%.

SMILES: Cc1nc(N[C@H](C)c2cccc(C(F)F)c2F)c2cn(C3(CF)CC3)c(=O)c(N3CCOC[C@@H]3C)c2n1 [Example 40, 4-(((R)-1-(3-(difluoromethyl)-2-fluorophenyl)ethyl)amino)-6-(1-(fluoromethyl)cyclopropyl)-2-methyl-8-((S)-3-methylmorpholine)pyrido[4,3-d]pyrimidine-7(6H)-one]
IC50 (CYP2C9): > 30 µM
inhibitory effect on tumor growth ([1]; 15 mg/kg orally twice a day, P < 0.0001): significant inhibitory effect on tumor growth
TGI(%) [1]: 59.0%

SMILES: [2H][C@](C)(Nc1nc(C)nc2c(N3CCOCC3)c(=O)n(C3(CF)CC3)cc12)c1cccc(C(F)F)c1F [Example 55, (R)-4-((1-(3-(difluoromethyl)-2-fluorophenyl)ethyl-1-d)amino)-6-(1-(fluoromethyl)cyclopropyl)-2-methyl-8-morpholinylpyrido[4,3-d]pyrimidine-7(6H)-one]
IC50 (CYP2C9): > 30 µM
TGI(%) [1]: 65.4%

IC50 (CYP2C9): > 30 µM
SMILES: [2H]C([2H])([2H])Oc1c(=O)n(C2(CF)CC2)cc2c(N[C@H](C)c3cccc(C(F)F)c3F)nc(C)nc12 [Example 23, (R)-4-((1-(3-(difluoromethyl)-2-fluorophenyl)ethyl)amino)-6-(1-(fluoromethyl)cyclopropyl)-8-(methoxy-d3)-2-methylpyrido[4,3-d]pyrimidine-7(6H)-one]
